Consider 5 compounds from patent US20260176320A1, “MODULATORS OF G-PROTEIN COUPLED RECEPTORS” (priority 2018, published 2026).

Like-named read-outs stand apart in the source and are kept apart here.

What all share (type): cell-based
Test [1] addresses T1, GLP-1R (Homo sapiens, UniProt P43220). In words: HitHunter cAMP assay (GLP-1R). Conditions: cAMP; for Emax: read-out: (Emax) GLP-1R. The method, boiled down:
(§1)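 Cells were resuspended in HBSS plus HEPES, IBMX (625 μM) and BSA, then dispensed with antibody at 10,000 per well. Agonists followed as 22-point twofold series, 30 min at room temperature. Antibody reagent and detection steps ran 1 h and overnight in the dark before luminescence.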
(cAMP levels reflect the balance of adenylyl cyclase and phosphodiesterase activity.)

A further test has as its target T2, GIP-R (Homo sapiens, UniProt P48546).
T2 sequence (P48546 22-466): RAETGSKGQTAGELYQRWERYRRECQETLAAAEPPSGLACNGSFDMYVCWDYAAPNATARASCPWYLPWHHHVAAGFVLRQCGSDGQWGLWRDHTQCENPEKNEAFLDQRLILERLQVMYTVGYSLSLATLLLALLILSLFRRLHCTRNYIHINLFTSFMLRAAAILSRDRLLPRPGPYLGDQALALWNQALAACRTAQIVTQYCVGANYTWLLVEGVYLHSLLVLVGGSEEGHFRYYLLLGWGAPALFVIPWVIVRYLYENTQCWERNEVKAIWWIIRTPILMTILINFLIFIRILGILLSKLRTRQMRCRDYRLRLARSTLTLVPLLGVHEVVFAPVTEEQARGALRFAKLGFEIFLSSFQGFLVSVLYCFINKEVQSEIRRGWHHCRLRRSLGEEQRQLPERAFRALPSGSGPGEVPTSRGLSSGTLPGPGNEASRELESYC
In words: HitHunter cAMP assay (GIP-R). The note with it: cAMP; for Emax: read-out: (Emax) GIP-R. The method, boiled down: as §1

The target in test [2] is T1, GLP-1R. In words: PathHunter β-arrestin assay. In short, it runs like this:
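Agonist concentration–response (22 points, 2-fold steps, duplicates) was run on cells plated the previous day in BSA-supplemented (0.2%) medium. Stimulation lasted 90 min at 37 °C, followed by a 3 h dark incubation with detection reagent at room temperature and a luminescence read.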

The mark [3] stands for this setting: Table 3A, read-out: EC50 GLP-1R/nM.
Setting [4] is: Table 3A, read-out: EC50 GIP-R/nM.
The mark [5] stands for this setting: PathHunter β-arrestin assay, read-out: β-arrestin activity EC50.
The mark [6] stands for this setting: Table 3, read-out: EC50 GLP-1R/nM.
Where [7] appears, read: Table 3, read-out: EC50 GIP-R/nM.

T1 sequence (P43220 24-463): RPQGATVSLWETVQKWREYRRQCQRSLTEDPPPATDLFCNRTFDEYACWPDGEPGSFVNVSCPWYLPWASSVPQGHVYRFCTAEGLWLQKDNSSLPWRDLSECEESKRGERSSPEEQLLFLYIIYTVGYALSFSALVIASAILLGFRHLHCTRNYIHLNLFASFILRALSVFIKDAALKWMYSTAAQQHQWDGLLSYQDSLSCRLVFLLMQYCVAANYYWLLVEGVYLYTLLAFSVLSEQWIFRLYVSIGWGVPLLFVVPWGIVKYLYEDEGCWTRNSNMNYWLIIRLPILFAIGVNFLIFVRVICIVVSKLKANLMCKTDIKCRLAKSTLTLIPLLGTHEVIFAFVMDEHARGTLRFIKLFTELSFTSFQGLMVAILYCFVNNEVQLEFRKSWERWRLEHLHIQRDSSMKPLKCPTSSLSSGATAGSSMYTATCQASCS

For the compound `CCCCCCCCCCCCCCCC(=O)N[C@@H](CCC(=O)NCCCC[C@H](NC(=O)[C@H](CO)NC(=O)[C@@H]1CCCN1C(=O)[C@@H]1CCCN1C(=O)[C@@H]1CCCN1C(=O)[C@H](C)NC(=O)CNC(=O)[C@H](CO)NC(=O)[C@H](CO)NC(=O)[C@@H]1CCCN1C(=O)CNC(=O)CNC(=O)[C@H](C)NC(=O)[C@H](CC(C)C)NC(=O)[C@H](CC(C)C)NC(=O)[C@H](Cc1c[nH]c2ccccc12)NC(=O)[C@H](CC(N)=O)NC(=O)[C@@H](NC(=O)[C@H](Cc1ccccc1)NC(=O)[C@H](CCC(=O)O)NC(=O)C(C)(C)NC(=O)[C@H](C)NC(=O)[C@H](C)NC(=O)[C@H](CCC(N)=O)NC(=O)[C@H](CCCCN)NC(=O)[C@H](CC(=O)O)NC(=O)[C@H](CC(C)C)NC(=O)[C@H](Cc1ccc(O)cc1)NC(=O)[C@@H](NC(=O)[C@H](CO)NC(=O)[C@H](Cc1ccc(O)cc1)NC(=O)[C@H](CC(=O)O)NC(=O)[C@H](CO)NC(=O)[C@@H](NC(=O)[C@H](Cc1ccccc1)NC(=O)[C@@H](NC(=O)CNC(=O)[C@H](CCC(=O)O)NC(=O)C(C)(C)CC(=O)NCCN1CCOCC1=O)[C@@H](C)O)[C@@H](C)O)[C@@H](C)CC)C(C)C)C(N)=O)C(=O)O` [Compound 244], the Emax (commonly the size of the effect at its maximum, as opposed to the concentration needed) amounted to 100% at GLP-1R [1] (Table 3A) and 50% at GIP-R (Table 3A). Besides, the EC50 was under 0.1 nM at GLP-1R [1] (setting [3]), 1 to 10 nM on GIP-R (setting [4]) and 10 to 1000 nM on GLP-1R [2] (setting [5]).

Regarding `CCCCCCCCCCCCCCCC(=O)N[C@@H](CCC(=O)NCCCC[C@H](NC(=O)[C@H](CO)NC(=O)[C@@H]1CCCN1C(=O)[C@@H]1CCCN1C(=O)[C@@H]1CCCN1C(=O)[C@H](C)NC(=O)CNC(=O)[C@H](CO)NC(=O)[C@H](CO)NC(=O)[C@@H]1CCCN1C(=O)CNC(=O)CNC(=O)[C@H](C)NC(=O)[C@H](CC(C)C)NC(=O)[C@H](CC(C)C)NC(=O)[C@H](Cc1c[nH]c2ccccc12)NC(=O)[C@H](CC(N)=O)NC(=O)[C@@H](NC(=O)[C@H](Cc1ccccc1)NC(=O)[C@H](CCC(=O)O)NC(=O)C(C)(C)NC(=O)[C@H](C)NC(=O)[C@H](C)NC(=O)[C@H](CCC(N)=O)NC(=O)[C@H](CCCCN)NC(=O)[C@H](CC(=O)O)NC(=O)[C@H](CC(C)C)NC(=O)[C@H](Cc1ccc(O)cc1)NC(=O)[C@@H](NC(=O)[C@H](CO)NC(=O)[C@H](Cc1ccc(O)cc1)NC(=O)[C@H](CC(=O)O)NC(=O)[C@H](CO)NC(=O)[C@@H](NC(=O)[C@H](Cc1ccccc1)NC(=O)[C@@H](NC(=O)CNC(=O)[C@H](CCC(=O)O)NC(=O)CSCC(=O)NCCN1CCS(=O)(=O)CC1=O)[C@@H](C)O)[C@@H](C)O)[C@@H](C)CC)C(C)C)C(N)=O)C(=O)O` [Compound 29], the EC50 on GLP-1R [1] (EC50 GLP-1R/nM, Table 3) is 1 to 10 nM; at GLP-1R [1] (EC50 GLP-1R/nM, Table 3A) it was 1 to 10 nM; at GIP-R (EC50 GIP-R/nM, Table 3) it was 1 to 10 nM; on GIP-R (EC50 GIP-R/nM, Table 3A), 100 to 1000 nM; on GLP-1R [2], over 1000 nM. The Emax is 98% at GLP-1R [1] (Table 3), 98% at GLP-1R [1] (Table 3A), 11% on GIP-R (Table 3) and 11% at GIP-R (Table 3A).

`CCCCCCCCCCCCCCCC(=O)N[C@@H](CCC(=O)NCCCC[C@H](NC(=O)[C@H](CO)NC(=O)[C@@H]1CCCN1C(=O)[C@@H]1CCCN1C(=O)[C@@H]1CCCN1C(=O)[C@H](C)NC(=O)CNC(=O)[C@H](CO)NC(=O)[C@H](CO)NC(=O)[C@@H]1CCCN1C(=O)CNC(=O)CNC(=O)[C@H](C)NC(=O)[C@H](CC(C)C)NC(=O)[C@H](CC(C)C)NC(=O)[C@H](Cc1c[nH]c2ccccc12)NC(=O)[C@H](CC(N)=O)NC(=O)[C@@H](NC(=O)[C@H](Cc1ccccc1)NC(=O)[C@H](CCC(=O)O)NC(=O)C(C)(C)NC(=O)[C@H](C)NC(=O)[C@H](C)NC(=O)[C@H](CCC(N)=O)NC(=O)[C@H](CCCCN)NC(=O)[C@H](CC(=O)O)NC(=O)[C@H](CC(C)C)NC(=O)[C@H](Cc1ccc(O)cc1)NC(=O)[C@@H](NC(=O)[C@H](CO)NC(=O)[C@H](Cc1ccc(O)cc1)NC(=O)[C@H](CC(=O)O)NC(=O)[C@H](CO)NC(=O)[C@@H](NC(=O)[C@H](Cc1ccccc1)NC(=O)[C@@H](NC(=O)CNC(=O)[C@H](CCC(=O)O)NC(=O)CSCC(=O)NCCN1CC(=O)NCC1=O)[C@@H](C)O)[C@@H](C)O)[C@@H](C)CC)C(C)C)C(N)=O)C(=O)O` [Compound 25]: the Emax was 86% on GLP-1R [1] (Table 3), 86% on GLP-1R [1] (Table 3A), 43% on GIP-R (Table 3) and 43% on GIP-R (Table 3A). In addition, the EC50 is 1 to 10 nM at GLP-1R [1] (setting [6]); 1 to 10 nM at GLP-1R [1] (setting [3]); 1 to 10 nM at GIP-R (setting [7]); 1 to 10 nM at GIP-R (setting [4]); over 1000 nM at GLP-1R [2] (setting [5]).

For `CC[C@H](C)[C@H](NC(=O)[C@H](CO)NC(=O)[C@H](Cc1ccc(O)cc1)NC(=O)[C@H](CC(=O)O)NC(=O)[C@H](CO)NC(=O)[C@@H](NC(=O)[C@H](Cc1ccccc1)NC(=O)[C@@H](NC(=O)CNC(=O)[C@H](CCC(=O)O)NC(=O)C(C)(C)C(=O)NCCCN1C(=O)c2ccccc2C1=O)[C@@H](C)O)[C@@H](C)O)C(=O)N[C@@H](Cc1ccc(O)cc1)C(=O)N[C@@H](CC(C)C)C(=O)N[C@@H](CC(=O)O)C(=O)N[C@@H](CCCCN)C(=O)N[C@@H](CCC(N)=O)C(=O)N[C@@H](C)C(=O)N[C@@H](C)C(=O)NC(C)(C)C(=O)N[C@@H](CCC(=O)O)C(=O)N[C@@H](Cc1ccccc1)C(=O)N[C@H](C(=O)N[C@@H](CC(N)=O)C(=O)N[C@@H](Cc1c[nH]c2ccccc12)C(=O)N[C@@H](CC(C)C)C(=O)N[C@@H](CC(C)C)C(=O)N[C@@H](C)C(=O)NCC(=O)NCC(=O)N1CCC[C@H]1C(=O)N[C@@H](CO)C(=O)N[C@@H](CO)C(=O)NCC(=O)N[C@@H](C)C(=O)N1CCC[C@H]1C(=O)N1CCC[C@H]1C(=O)N1CCC[C@H]1C(=O)N[C@@H](CO)C(=O)N[C@@H](CCCCN)C(N)=O)C(C)C` [Compound 143], the Emax is 99 to 108% at GLP-1R [1] (Table 3), 99 to 108% at GLP-1R [1] (Table 3A), 99 to 107% at GIP-R (Table 3) and 99 to 107% at GIP-R (Table 3A). For the same compound, the EC50 on GLP-1R [1] (setting [6]) was 0.1 to 1 nM; on GLP-1R [1] (setting [3]) it was 0.1 to 1 nM; at GIP-R (setting [7]), 1 to 10 nM; on GIP-R (setting [4]), 1 to 10 nM; on GLP-1R [2] (setting [5]), over 1000 nM.

`CC[C@H](C)[C@H](NC(=O)[C@H](CO)NC(=O)[C@H](Cc1ccc(O)cc1)NC(=O)[C@H](CC(=O)O)NC(=O)[C@H](CO)NC(=O)[C@@H](NC(=O)[C@H](Cc1ccccc1)NC(=O)[C@@H](NC(=O)CNC(=O)[C@H](CCC(=O)O)NC(=O)CCCNC(=O)CN1C(=O)CSC1=O)[C@@H](C)O)[C@@H](C)O)C(=O)N[C@@H](Cc1ccc(O)cc1)C(=O)N[C@@H](CC(C)C)C(=O)N[C@@H](CC(=O)O)C(=O)N[C@@H](CCCCN)C(=O)N[C@@H](CCC(N)=O)C(=O)N[C@@H](C)C(=O)N[C@@H](C)C(=O)NC(C)(C)C(=O)N[C@@H](CCC(=O)O)C(=O)N[C@@H](Cc1ccccc1)C(=O)N[C@H](C(=O)N[C@@H](CC(N)=O)C(=O)N[C@@H](Cc1c[nH]c2ccccc12)C(=O)N[C@@H](CC(C)C)C(=O)N[C@@H](CC(C)C)C(=O)N[C@@H](C)C(=O)NCC(=O)NCC(=O)N1CCC[C@H]1C(=O)N[C@@H](CO)C(=O)N[C@@H](CO)C(=O)NCC(=O)N[C@@H](C)C(=O)N1CCC[C@H]1C(=O)N1CCC[C@H]1C(=O)N1CCC[C@H]1C(=O)N[C@@H](CO)C(=O)N[C@@H](CCCCN)C(N)=O)C(C)C` [Compound 178]: the Emax at GLP-1R [1] (Table 3) turned out to be 97%; at GLP-1R [1] (Table 3A), 97%; on GIP-R (Table 3) it was 38%; on GIP-R (Table 3A), 38%. Besides, the EC50 on GLP-1R [1] (setting [6]) is 1 to 10 nM; at GLP-1R [1] (setting [3]) it was 1 to 10 nM; on GIP-R (setting [7]), 100 to 1000 nM; at GIP-R (setting [4]) it was 100 to 1000 nM; at GLP-1R [2] (setting [5]), over 1000 nM.
